In publication PMC9973354 (mBio, 2022):
≈ marks a conversion by molar mass, not a printed value.

Columns and labels:
Format in all cases: cell-based, Pseudomonas aeruginosa
PA14 ΔfpvA mutant [1] = assay: MIC assay, ΔfpvA mutant; conditions: Pseudomonas aeruginosa, PA14
Procedure: (§1) MIC assays were conducted as previously described ([13], [14]). Overnight cultures were grown in LB from a glycerol stock at 37°C with shaking (200 rpm). Subcultures in 10:90 (1:100 dilution) were cultured for 4 h. Cells were adjusted to an optical density at 600 nm (OD600) of 0.1/500 in 10:90. All compounds were serially diluted 2-fold in dimethyl sulfoxide (DMSO) or H2O at 75× the final concentration. Plates were sealed to prevent evaporation and incubated at 37°C overnight in a shaking incubator (200 rpm). The next day, the OD600 was determined with a plate reader (Thermo Scientific) and normalized to percent of growth of the vehicle control after subtracting the OD600 from blank media.

PA14 ΔfpvA ΔfpvB mutant [2] = assay: MIC assay, ΔfpvA ΔfpvB mutant; conditions: Pseudomonas aeruginosa, PA14
Procedure: as §1

PA14 = assay: Growth curves with DSX and siderophores, WT PA14; conditions: DSX 64 μg/mL or pyoverdine 10 μg/mL alone, 20 h, 10:90
Procedure: (§2) Supplementary file : FIG S1 (A) FpvB is expressed in WT PA14 and the ΔfpvA mutant grown in 10:90. PilF was used as a loading control for outer membrane proteins. (B) FpvA is expressed from WT PA14 grown in 10:90. […] PilF was used as a loading control for outer membrane proteins. (C) Growth curves of PA14 and mutants with DSX and different siderophores in 10:90. PA14, ΔfpvA, ΔfpvB, ΔfpvA ΔfpvB, and ΔpvdA ΔpchA strain growth. Blue indicates control, purple indicates treatment with 64 μg/mL DSX, yellow indicates treatment with 10 μg/mL pyoverdine (PA14), and red indicates treatment with 64 μg/mL DSX and 10 μg/mL pyoverdine (PA14). (D) ΔfpvA, ΔfpvA ΔfpvB, and ΔpvdA ΔpchA strain growth. Blue indicates control, purple indicates treatment with 64 μg/mL DSX, grey indicates treatment with 10 μg/mL ferrichrome, and red indicates treatment with 64 μg/mL DSX and 10 μg/mL ferrichrome. (E) ΔfpvA, ΔfpvA ΔfpvB, and ΔpvdA ΔpchA strain growth. […] Download FIG S1, EPS file, 8.5 MB.
(§3) Another explanation for the susceptibility of the ΔfpvA mutant to DSX is that the mutant produces less pyoverdine compared to WT cells due to loss of the signaling cascade that controls siderophore production in response to its binding to FpvA ([25]). To differentiate whether the fpvA mutant was susceptible to DSX because of reduced pyoverdine production or because FpvB was a poor pyoverdine transporter, we treated the WT, ΔfpvA, ΔfpvB, and ΔfpvA ΔfpvB strains with DSX (64 μg/mL) without and with exogenous pyoverdine (10 μg/mL) for 20 h (Fig. 1; see also Fig. S1C). Growth of the ΔfpvA mutant should be restored if there are functional pyoverdine transporters. […] The growth of the ΔfpvA ΔfpvB mutant was inhibited by DSX and pyoverdine, confirming previously published results ([18]).

PA14 ΔfpvA mutant [3] = assay: Growth curves with DSX and siderophores, ΔfpvA; conditions: DSX 64 μg/mL or pyoverdine 10 μg/mL alone, 20 h, 10:90
Procedure: as §2, §3
(§4) As a control, a ΔpvdA ΔpchA mutant unable to make pyoverdine and pyochelin was also tested. Growth of this mutant was inhibited by DSX.

PA14 ΔfpvB mutant = assay: Growth curves with DSX and siderophores, ΔfpvB; conditions: DSX 64 μg/mL or pyoverdine 10 μg/mL alone, 20 h, 10:90
Procedure: as §2, §3

PA14 ΔfpvA ΔfpvB mutant [4] = assay: Growth curves with DSX and siderophores, ΔfpvA ΔfpvB; conditions: DSX 64 μg/mL, pyoverdine 10 μg/mL, 20 h
Procedure: as §2, §3, §4

PA14 ΔpvdA ΔpchA mutant = assay: Growth curves with DSX and siderophores, ΔpvdA ΔpchA; conditions: DSX 64 μg/mL, 20 h
Procedure: as §2, §4

[5] = tested on: PA14 ΔfpvA ΔfpvB pHERD20T-fpvA; assay: MIC assay, ΔfpvA ΔfpvB complemented with fpvA; conditions: complementation with fpvA, arabinose induction
Procedure: (§5) The ΔfpvA ΔfpvB mutant was complemented in trans with pHERD20T-fpvA or pHERD20T-fpvB. pHERD20T is an arabinose-inducible vector with expression driven by the PBAD promoter under the control of AraC ([30]).
as §1

[6] = tested on: PA14 ΔfpvA ΔfpvB pHERD20T-fpvB; assay: MIC assay, ΔfpvA ΔfpvB complemented with fpvB; conditions: complementation with fpvB, arabinose induction
Procedure: as §5, §1

PA14 ΔfpvA mutants = assay: Growth phenotypes of deletion mutants, ΔfpvA mutants; conditions: 64 μg/mL DSX, 10:90
Description: (§6) PA14, ΔfpvA, ΔfpvB, and ΔfpvA ΔfpvB strains treated with TS (A) and DSX (B) in 10:90. Green indicates growth, and white indicates no growth. Growth is expressed as percent of control. The PA14 ΔfpvA ΔfpvB strain complemented with pHERD20T, fpvA, or fpvB treated with TS (C) and DSX (D) in 10:90. […] All experiments are averaged from three independent biological replicates. Blue indicates growth and white indicates no growth. (H) Summary of growth phenotypes of WT PA14 and combinations of single, double, triple, and quadruple deletion mutants in fpvA, fpvB, fiuA, and foxA. […] Green indicates growth, whereas no growth is indicated in white. […] Representative plates are shown.
(§7) If there were no transporters for a particular siderophore, the mutant would fail to grow due to iron restriction.

[7] = tested on: PA14 ΔfpvA ΔfpvB ΔfiuA ΔfoxA quadruple mutant; assay: Growth phenotypes of deletion mutants, quadruple mutant; conditions: 64 μg/mL DSX, 10 μg/mL siderophores, 10:90
Description: as §6, §7

[8] = tested on: PA14 ΔfpvA ΔfpvB pHERD20T-fpvA T660C; assay: MIC assay, ΔfpvA ΔfpvB expressing FpvA T660C; conditions: 10:90 + 2% arabinose
Description: FpvA T660C was used previously to measure pyoverdine-Fe^3+ binding affinity ([32]). However, this technique has not been applied to FpvB. A high-confidence structural model of FpvB was generated using AlphaFold2 ([33], [34]) and aligned with the structure of FpvA (PDB accession number 2O5P) to identify a residue suitable for labeling, with the assumption that FpvA and FpvB undergo similar conformational changes upon ferrisiderophore binding (see Fig. S3A through C in the supplemental material). Based on this analysis, FpvB R648 was mutated to Cys. FpvA T660C and FpvB R648C were each expressed in trans in the ΔfpvA ΔfpvB mutant. […] We could also detect expression by fluorescence microscopy with peripheral labeling consistent with expression in the outer membrane (Fig. 3B). Labeling was undetectable in empty vector and WT controls (see Fig. S4A in the supplemental material).
Supplementary file : FIG S3 Overlay of FpvA and FpvB showing residues mutated to cysteine for labeling with maleimide dyes. FpvA (PDB accession number 2O5P) was superimposed with the AlphaFold2 model of FpvB. FpvA is shown in beige and FpvB in blue. […]
MIC assays were conducted as previously described ([13], [14]). […] The next day, the OD600 was determined with a plate reader (Thermo Scientific) and normalized to percent of growth of the vehicle control after subtracting the OD600 from blank media.

FpvB = assay: Western blot of FLAG-tagged FpvB expression after compound treatment; conditions: WT PA14 fpvB-FLAG; 10 μg/mL siderophores, 64 μg/mL DSX, 10:90
[9] = tested on: PA14 ΔfpvA ΔfpvB pHERD20T-fpvA; assay: Checkerboard assay TS and siderophores, FpvA expressed; conditions: 10:90 + 2% arabinose
Description: We investigated this hypothesis by treating the ΔfpvA ΔfpvB mutant complemented with fpvA or fpvB with TS and pyoverdine-Fe^3+. If pyoverdine competes with TS for the same binding site in the transporter, a reduction in TS susceptibility would be expected, as competition would decrease entry of the antibiotic into the cell. TS susceptibility decreased >8-fold with increasing concentrations of pyoverdine-Fe^3+ when FpvA was expressed (see Fig. S2A in the supplemental material).
Supplementary file : FIG S2 Checkerboard assays of the PA14 ΔfpvA ΔfpvB strain complemented with fpvA and fpvB in trans with TS and siderophores. […] Checkerboards of the PA14 ΔfpvA ΔfpvB pHERD20T-fpvB strain with TS and enterobactin (G), ferrioxamine E (H), and arthrobactin (I). Results are averaged from three independent biological replicates. Cells in the assay were grown in 10:90 + 2% arabinose. Download FIG S2, EPS file, 2.2 MB.
Checkerboards (8 rows by 8 columns) were conducted as previously described in a 96-well plate (Nunc) ([13], [14]). TS at 75× the final concentration dissolved in DMSO was added in columns from bottom to top in increasing concentrations. Siderophores at 75× the final concentration dissolved in DSMO were added from in rows from left to right in increasing concentrations. Four columns were used for vehicle controls (DMSO) and sterile controls. […] Plates were sealed to prevent evaporation and incubated at 37°C overnight in a shaking incubator (200 rpm). The next day, the OD600 was determined with a plate reader (Thermo Scientific) and normalized to percent of growth of the vehicle control (DMSO) after subtracting the OD600 from blank media.

[10] = tested on: PA14 mutant combinations that include ΔfoxA; assay: Growth phenotypes of deletion mutants, ΔfoxA combinations; conditions: any mutant combination with ΔfoxA; 10 μg/mL ferrioxamine E, 10:90
Description: as §6, §7

Structure (SMILES)	MIC (PA14 ΔfpvA mutant [1])	MIC (PA14 ΔfpvA ΔfpvB mutant [2])	growth versus control (PA14)	growth versus control (PA14 ΔfpvA mutant [3])	growth versus control (PA14 ΔfpvB mutant)	growth versus control (PA14 ΔfpvA ΔfpvB mutant [4])	growth versus control (PA14 ΔpvdA ΔpchA mutant)	growth with DSX [5]	growth with DSX [6]	growth in the presence of compound (PA14 ΔfpvA mutants)	growth in the presence of compound [7]	growth with DSX [8]	stimulation of FpvB expression (FpvB)	effect of siderophore on TS susceptibility [9]	growth in the presence of compound [10]
O=C(O)c1ccc(-n2nc(-c3ccccc3O)nc2-c2ccccc2O)cc1 [DSX, deferasirox]	8 µg/mL (≈ 21.4 µM)	8 µg/mL (≈ 21.4 µM)	growth was similar between the control and DSX conditions	inhibited growth	growth was similar between the control and DSX conditions	inhibited	inhibited	restored growth	could not restore growth	unable to grow	failed to grow	restored growth with DSX	None of the compounds stimulated expression	–	–
O=C1CCC(=O)N(O)CCCCCNC(=O)CCC(=O)N(O)CCCCCNC(=O)CCC(=O)N(O)CCCCCN1 [ferrioxamine E]	–	–	–	–	–	–	–	–	–	–	failed to grow	–	–	None of those siderophores reduced TS susceptibility	inhibited
